For 67 molecules, inhibition results are on record in paper PMC8041284, “Tunable Methacrylamides for Covalent Ligand Directed Release Chemistry” (Journal of the American Chemical Society, 2021).

For one experiment, the target named is BTK (Homo sapiens, UniProt Q06187). Nature of the experiment: biochemical. The following applies: read-out: BTK inhibition (%).
Chain of BTK (Q06187 402-655 limits assumed): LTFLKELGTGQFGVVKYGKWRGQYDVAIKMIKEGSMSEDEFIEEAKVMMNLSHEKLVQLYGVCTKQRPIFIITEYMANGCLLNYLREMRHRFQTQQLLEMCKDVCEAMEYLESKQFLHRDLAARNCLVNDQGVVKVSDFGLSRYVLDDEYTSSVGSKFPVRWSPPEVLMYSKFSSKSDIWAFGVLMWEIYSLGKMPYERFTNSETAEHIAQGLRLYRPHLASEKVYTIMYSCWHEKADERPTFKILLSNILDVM
Consider `CCC1(c2cccc(O)c2)CCCCN(C)C1` (stereo not shown) [PCM-0086257], for which the inhibition at 10 µM is 7.8%.

For `O=[N+]([O-])c1ncc[nH]1` [PCM-0094820], the inhibition at 10 µM was 3.1%.

`COC(=O)C[C@](O)(CCC(C)(C)O)C(=O)O[C@@H]1C(OC)=C[C@]23CCCN2CCc2cc4c(cc2[C@H]13)OCO4` [PCM-0216362]: the inhibition at 10 µM is -7.7%.

Turning to `O=C(O)CCCCCCCCCO` [PCM-0216560], the inhibition at 10 µM is 14.7%.

Still in this experiment, the particulars now being: read-out: BTK inhibition (%), 0.75 uM BTK, […] probe 3l, 15 min preincubation.
On to `C=C1CCOC1=O` [PCM-0215909], for which the inhibition at 10 µM was 0.8%.

Consider `Cc1ccc(S(=O)(=O)n2c(N)nc3ccccc32)cc1` [PCM-0095508], for which the inhibition at 10 µM is -3.1%.

For `Cc1cc2nc3c(=O)[nH]c(=O)nc-3n(C[C@H](O)[C@H](O)[C@H](O)COP(=O)(O)O)c2cc1C` [PCM-0215946], the inhibition at 10 µM stood at 3.4%.

`Nc1ccc(S(=O)(=O)Nc2nccs2)cc1` [PCM-0085785]: the inhibition at 10 µM was 14.8%.

For `COc1cccc2c1C(=O)c1c(O)c3c(c(O)c1C2=O)C[C@@](O)(C(=O)CO)C[C@@H]3O[C@H]1C[C@H](N)[C@H](O)[C@H](C)O1` [PCM-0086032], the inhibition at 10 µM amounted to 42.8%.

For the molecule `CCNC(=O)c1noc(-c2cc(C(C)C)c(O)cc2O)c1-c1ccc(CN2CCOCC2)cc1` [PCM-0095017], the inhibition at 10 µM was -0.7%.

Take `O=C(Nc1cnn2ccc(N3CCC[C@@H]3c3cc(F)ccc3F)nc12)N1CC[C@H](O)C1` [PCM-0215701]: the inhibition at 10 µM was -9%.

In the case of `Cn1cc(-c2ccncc2)c(-c2ccc(OCc3ccc4ccccc4n3)cc2)n1` [PCM-0095695], the inhibition at 10 µM is -33.5%.

For the molecule `O=c1[nH]c(=O)c2[nH]cnc2[nH]1` [PCM-0214891], the inhibition at 10 µM is -10.9%.

With `O=C(O[C@@H]1O[C@@H]2COC(=O)c3cc(O)c(O)c(O)c3-c3c(cc(O)c(O)c3O)C(=O)O[C@H]([C@H]1O)[C@@H]2O)c1cc(O)c(O)c(O)c1` [PCM-0216383], the inhibition at 10 µM turned out to be 37.1%.

`COCCOc1ccc2c(c1)ncn2-c1ccc2cccc(N3CCC(N)CC3)c2n1` [PCM-0095094]: the inhibition at 10 µM was -18.6%.

For `CC(=O)O[C@]1(C(C)=O)CC[C@H]2[C@@H]3C=C(Cl)C4=CC(=O)[C@@H]5C[C@@H]5[C@]4(C)[C@H]3CC[C@@]21C` [PCM-0214712], the inhibition at 10 µM was 21%.

For `O=C(Cn1ccnc1[N+](=O)[O-])NCc1ccccc1` [PCM-0214934], the inhibition at 10 µM came to 3.1%.

For the molecule `O=C(/C=C/c1ccc2ccccc2n1)c1ccncc1` [PCM-0215310], the inhibition at 10 µM is 11.7%.

Consider `O=S(=O)(CC1CS1)c1ccc(Oc2ccccc2)cc1` (stereo not shown) [PCM-0095742], for which the inhibition at 10 µM was found to be 20.8%.

Take `COc1ccc(-c2nc3ccc(C4=NNC(=O)CC4C)cc3[nH]2)cc1` (stereo not shown) [PCM-0095109]: the inhibition at 10 µM is -21.8%.

On to `Cc1cc(C(N)=O)ccc1-n1c(CCC(=O)O)ccc1-c1ccc(-n2ccnc2)cc1` [PCM-0215346], for which the inhibition at 10 µM was 6.9%.

Regarding `COC(=O)[C@H](CCSC)NC(=O)c1ccc(NC[C@@H](N)CS)cc1-c1ccccc1` [PCM-0215424], the inhibition at 10 µM was -57.9%.

Consider `CC1(C)C2CCC1(C)C(O)C2` (stereo not shown) [PCM-0214868], for which the inhibition at 10 µM was determined as 1.6%.

For `Nc1ccc(C(=O)NCC(=O)O)cc1` [PCM-0086407], the inhibition at 10 µM amounted to 28%.

As to `O=c1[nH]c(=S)[nH]c2nc(-c3ccccc3)c(-c3ccccc3)nc12` [PCM-0215641], the inhibition at 10 µM came to 17%.

Turning to `Oc1ccc2c(c1)OC[C@@H]1c3cc4c(cc3O[C@H]21)OCO4` [PCM-0216297], the inhibition at 10 µM was -20.1%.

Take `Cc1ncc(NC(=O)c2cccc(C(F)(F)F)c2)cc1-c1cnc(OC2CCOCC2)c(N2CCOCC2)c1` [PCM-0216049]: the inhibition at 10 µM is -13.1%.

For the molecule `COc1cc(Nc2ncc3c(n2)-c2ccc(Cl)cc2C(c2c(F)cccc2OC)=NC3)ccc1C(=O)O` [PCM-0094940], the inhibition at 10 µM was 83.4%.

As for `O=C1c2c(O)cc(O)cc2O[C@H](c2ccc(O)c(O)c2)[C@H]1O` [PCM-0087882], the inhibition at 10 µM is 11%.

For `OC1OC[C@@H](O)[C@@H](O)[C@@H]1O` (stereo partly shown) [PCM-0215980], the inhibition at 10 µM amounted to 10.8%.

As to `CCOC(=O)/C=C/c1ccc(OC)cc1` [PCM-0216286], the inhibition at 10 µM is -3.1%.

Consider `COC(=O)CC[C@@H](C)[C@H]1CC[C@H]2[C@@H]3[C@H](O)C[C@@H]4C[C@H](O)CC[C@]4(C)[C@H]3C[C@H](O)[C@]12C` [PCM-0215088], for which the inhibition at 10 µM was -4.7%.

As for `COc1c2c(cc3oc(CO[C@@H]4O[C@H](CO)[C@@H](O)[C@H](O)[C@H]4O)cc(=O)c13)O[C@H](C(C)(C)O)C2` [PCM-0216346], the inhibition at 10 µM amounted to 7.7%.

Take `COC(=O)C1=C(C)NC(C)=C(C(=O)OCC(C)C)C1c1ccccc1[N+](=O)[O-]` (stereo not shown) [PCM-0086426]: the inhibition at 10 µM stood at 31.1%.

With `COc1ccc([C@@H]2CC(=O)c3c(O)cc(O[C@@H]4O[C@H](CO)[C@@H](O)[C@H](O)[C@H]4O[C@@H]4O[C@@H](C)[C@H](O)[C@@H](O)[C@H]4O)cc3O2)cc1` [PCM-0216440], the inhibition at 10 µM came out at 2.3%.

In the case of `Cc1ccc(C(=O)Cn2c3c(sc2=N)CCCC3)cc1` [PCM-0095433], the inhibition at 10 µM is -11.7%.

With `CCOC(=O)c1ccc(NC(=O)O[C@H]2[C@H](OC(=O)Nc3ccc4c(c3)OCO4)[C@@H](OC(=O)Nc3ccc4c(c3)OCO4)[C@@H](OC)O[C@@H]2CO)cc1` [PCM-0215463], the inhibition at 10 µM turned out to be 98.1%.

In the case of `COc1cc2c(cc1OC(C)C)[C@H](c1ccc(Cl)cc1)N(c1ccc(N(C)CC3CCC(N4CCN(C)C(=O)C4)CC3)cc1)C(=O)C2` (stereo partly shown) [PCM-0215723], the inhibition at 10 µM was determined as 57.9%.

For `Cc1cc(C#N)cc(C)c1Oc1nc(Nc2ccc(C#N)cc2)nc(N)c1Br` [PCM-0095562], the inhibition at 10 µM amounted to 36.6%.

Take `C[C@@H](Oc1cc(-n2cnc3ccc(CN4CCN(C)CC4)cc32)sc1C(N)=O)c1ccccc1C(F)(F)F` [PCM-0095237]: the inhibition at 10 µM was determined as 0.7%.

With `CN[C@@H](C)C(=O)N[C@H](C(=O)N1CCC[C@H]1C(=O)N[C@H]1c2ccccc2C[C@H]1OCC#CC#CCO[C@@H]1Cc2ccccc2[C@@H]1NC(=O)[C@@H]1CCCN1C(=O)[C@@H](NC(=O)[C@H](C)NC)C1CCCCC1)C1CCCCC1` [PCM-0215824], the inhibition at 10 µM amounted to 2.6%.

In the case of `NC(=O)c1cccc2[nH]c(-c3ccc([C@@H]4CCCN4)cc3F)nc12` [PCM-0214633], the inhibition at 10 µM was determined as 17.1%.

Take `O=C(O)c1ccc(N2C(=O)/C(=C/c3ccc(-c4ccc([N+](=O)[O-])cc4)o3)C=C2c2ccccc2)cc1` [PCM-0095764]: the inhibition at 10 µM worked out at 98.1%.

Turning to `CCN(CCO)CCCOc1ccc2c(Nc3cc(CC(=O)Nc4cccc(F)c4)[nH]n3)ncnc2c1` [PCM-0094969], the inhibition at 10 µM was 66.9%.

Turning to `c1ccc2c(Oc3nc(Nc4ccc(N5CCOCC5)cc4)c4ncn(C5CCCCC5)c4n3)cccc2c1` [PCM-0215227], the inhibition at 10 µM was found to be 17.9%.

Consider `O=C(NC1CCOCC1)c1ccc(-c2cc(-c3cn[nH]c3-c3ccccn3)ccn2)cc1` [PCM-0095490], for which the inhibition at 10 µM stood at 1.6%.

In the case of `OCc1c[nH]c2ccccc12` [PCM-0091140], the inhibition at 10 µM is -14%.

As for `CC(C)=CCC[C@](C)(O[C@@H]1O[C@H](CO)[C@@H](O)[C@H](O)[C@H]1O)[C@H]1CC[C@]2(C)[C@@H]1[C@H](O)C[C@@H]1[C@@]3(C)CC[C@H](O)C(C)(C)[C@@H]3CC[C@]12C` [PCM-0216397], the inhibition at 10 µM came to 11.6%.

With `COC(=O)C1=C(C)NC(C)=C(C(=O)OC(C)C)C1c1cccc2nonc12` (stereo not shown) [PCM-0086297], the inhibition at 10 µM was -2.3%.

In the case of `CC(C)N(CCC(C(N)=O)(c1ccccc1)c1ccccn1)C(C)C` (stereo not shown) [PCM-0065027], the inhibition at 10 µM was found to be 5.4%.

Turning to `CCS(=O)(=O)N1CCC(C(C)n2c(C)c(C(=O)NCc3c(OC)cc(C)[nH]c3=O)c3ccccc32)CC1` (stereo not shown) [PCM-0215486], the inhibition at 10 µM is -3.1%.

Regarding `CC(=O)O[C@H]1C(=O)[C@@]2(C)[C@H]([C@H](OC(=O)c3ccccc3)[C@]3(O)C[C@H](O)C(C)=C1C3(C)C)[C@]1(OC(C)=O)CO[C@@H]1C[C@@H]2O` [PCM-0215022], the inhibition at 10 µM is -17.1%.

With `CC(=O)Oc1ccc(C(=C2CCCCC2)c2ccc(OC(C)=O)cc2)cc1` [PCM-0216241], the inhibition at 10 µM was -3.9%.

Take `CC(C)OC(=O)C(C(=O)OC(C)C)=C1SC=CS1` [PCM-0094945]: the inhibition at 10 µM came out at 3.9%.

For `O=C1NC(=O)/C(=C\c2ccc(-c3ccc(F)cc3)o2)S1` [PCM-0095359], the inhibition at 10 µM was 11%.

Take `O=C1C(=O)c2ccccc2C(O)=C1C1CCC(c2ccc(Cl)cc2)CC1` (stereo not shown) [PCM-0214729]: the inhibition at 10 µM came out at 16.3%.

Consider `Nc1nc2c(ncn2COCCO)c(=O)[nH]1` [PCM-0064530], for which the inhibition at 10 µM is -15.6%.

As to `CO[C@H]1C[C@H](O[C@@H]2/C(C)=C/C[C@@H]3C[C@@H](C[C@]4(CC[C@H](C)[C@@H](C5CCCCC5)O4)O3)OC(=O)[C@@H]3C=C(C)/C(=N/O)[C@H]4OC/C(=C\C=C\[C@@H]2C)[C@]43O)O[C@@H](C)[C@@H]1O` [PCM-0216231], the inhibition at 10 µM was 41.7%.

Turning to `CCOC(=O)/C=C/c1ccc(O)c(O)c1` [PCM-0216571], the inhibition at 10 µM worked out at 17.8%.

`CC(C)CN(C[C@@H](O)[C@H](Cc1ccccc1)NC(=O)O[C@H]1CCOC1)S(=O)(=O)c1ccc(N)cc1` [PCM-0214738]: the inhibition at 10 µM is -41.2%.

Regarding `C[C@@H](NCCc1ccc(O)cc1)[C@@H](O)c1ccc(O)cc1` [PCM-0214689], the inhibition at 10 µM worked out at 0%.

Regarding `CC(O)[C@H](C)[C@H](N)C(=O)O` (stereo partly shown) [PCM-0216361], the inhibition at 10 µM was -2.6%.

In the case of `C[C@@H]1C(=O)O[C@H]2C[C@@]34[C@H]5C[C@@H](C(C)(C)C)[C@]36[C@@H](OC(=O)[C@@H]6O)O[C@@]4(C(=O)O5)[C@]21O` [PCM-0089814], the inhibition at 10 µM is -7.8%.

Consider `COc1cc(/C=C/c2ccc(O)c(O)c2)cc(OC)c1` [PCM-0214943], for which the inhibition at 10 µM is 36.6%.

On to `CN(C)CCOC(c1ccccc1)c1ccccc1` [PCM-0065230], for which the inhibition at 10 µM came to 2.1%.

As for `CCOC(=O)N1CCC(CN(Cc2ccc(Cl)cc2)Cc2ccc([N+](=O)[O-])s2)C1` (stereo not shown) [PCM-0215989], the inhibition at 10 µM is 20.1%.

Consider `C=CC(=O)N1CCN(CCCn2c(=O)c(-c3c(Cl)c(OC)cc(OC)c3Cl)cc3cnc(NC)nc32)CC1` [PCM-0215863], for which the inhibition at 10 µM was 6.2%.

In general, inhibition refers to the drop in the measured response relative to a control, in per cent.
